Legend:
[1] = Partition coefficient, log P of the compound; format: physicochemical; settings: octanol/water
P-gp (ABCB1) = P-gp (ABCB1) (Homo sapiens, UniProt P08183); test: (§1) Inhibition of human Pgp-mediated DNR transport in NIH3T3 cells by microplate assay; format: cell-based, Mus musculus; settings: mouse, NIH3T3 cells expressing human P-gp, probe DNR; read-out: Imax
[2] = molecular target: ATP-dependent translocase ABCB1 (Homo sapiens, UniProt P08183); test: as §1; format: cell-based, Mus musculus
ATP-dependent translocase ABCB1, sequence (P08183 whole entry): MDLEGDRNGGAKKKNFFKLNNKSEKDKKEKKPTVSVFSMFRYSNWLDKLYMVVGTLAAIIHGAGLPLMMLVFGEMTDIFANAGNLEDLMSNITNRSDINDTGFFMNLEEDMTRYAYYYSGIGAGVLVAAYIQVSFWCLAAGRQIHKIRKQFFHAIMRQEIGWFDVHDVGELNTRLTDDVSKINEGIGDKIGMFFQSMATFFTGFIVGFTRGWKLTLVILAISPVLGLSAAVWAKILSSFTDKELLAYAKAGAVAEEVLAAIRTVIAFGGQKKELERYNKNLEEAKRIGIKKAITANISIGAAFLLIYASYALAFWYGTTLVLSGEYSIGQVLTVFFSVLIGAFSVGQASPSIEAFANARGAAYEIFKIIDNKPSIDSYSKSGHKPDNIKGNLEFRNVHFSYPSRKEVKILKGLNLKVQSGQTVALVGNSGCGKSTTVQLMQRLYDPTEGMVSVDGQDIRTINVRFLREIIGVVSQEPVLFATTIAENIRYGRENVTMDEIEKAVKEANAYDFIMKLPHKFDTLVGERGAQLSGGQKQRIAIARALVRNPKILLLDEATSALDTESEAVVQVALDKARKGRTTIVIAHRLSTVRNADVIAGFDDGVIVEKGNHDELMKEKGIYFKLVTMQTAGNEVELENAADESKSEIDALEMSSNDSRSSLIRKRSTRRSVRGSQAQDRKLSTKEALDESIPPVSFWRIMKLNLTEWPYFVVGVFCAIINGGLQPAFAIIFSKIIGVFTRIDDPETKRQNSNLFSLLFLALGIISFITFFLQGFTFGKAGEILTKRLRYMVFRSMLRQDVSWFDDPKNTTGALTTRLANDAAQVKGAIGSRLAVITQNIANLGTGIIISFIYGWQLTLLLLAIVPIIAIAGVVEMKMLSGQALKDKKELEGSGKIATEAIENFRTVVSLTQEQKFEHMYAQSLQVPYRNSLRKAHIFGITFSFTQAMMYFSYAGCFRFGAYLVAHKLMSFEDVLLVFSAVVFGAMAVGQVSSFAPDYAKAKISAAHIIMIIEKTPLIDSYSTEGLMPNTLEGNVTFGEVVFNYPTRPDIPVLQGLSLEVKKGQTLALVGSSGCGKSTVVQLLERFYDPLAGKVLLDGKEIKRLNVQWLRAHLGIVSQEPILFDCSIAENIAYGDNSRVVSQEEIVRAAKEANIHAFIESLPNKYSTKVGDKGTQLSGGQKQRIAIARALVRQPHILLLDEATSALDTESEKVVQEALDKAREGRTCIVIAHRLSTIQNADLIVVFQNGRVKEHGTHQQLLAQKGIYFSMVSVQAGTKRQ

P-gp (ABCB1), sequence (P08183 whole entry): as above

Structure (SMILES) | logP ([1]; read-out: LogP) | Emax (P-gp (ABCB1)) | Ki ([2]; read-out: Ki) | logP [1] | Ki ([2]; read-out: Log Ki (converted))
CCCCCO[C@H]1C[C@@](C)(O)[C@]23OC(C)(C)[C@H](C[C@H](OC(=O)c4ccco4)[C@]2(C)[C@H]1OC(C)=O)[C@H]3OC(=O)c1ccco1 | 6.6 | 95.5% | 0.57 µM |  | 
CC(=O)O[C@H]1[C@@H](OC(=O)c2cccnc2)C[C@@](C)(O)[C@]23OC(C)(C)[C@H](C[C@H](OC(=O)c4ccco4)[C@]12C)[C@H]3OC(=O)c1ccco1 | 6.1 | 100% | 7.42 µM |  | 
CC(=O)O[C@H]1[C@@H](OC(=O)c2ccccc2)C[C@@](C)(O)[C@]23OC(C)(C)[C@H](C[C@H](OC(=O)c4ccco4)[C@]12C)[C@H]3O | 5.7 | 68% | 2.5 µM |  | 
CC(=O)O[C@H]1C[C@@](C)(O)[C@]23OC(C)(C)[C@H](C[C@H](OC(=O)c4ccco4)[C@]2(C)[C@H]1OC(C)=O)[C@H]3O | 3.4 | 100% | 17.5 µM |  | 
CC(=O)O[C@H]1[C@@H](OC(=O)c2ccccc2)C[C@@](C)(O)[C@]23OC(C)(C)[C@H](C[C@H](OC(=O)c4ccco4)[C@]12C)[C@H]3OC(=O)c1cccc2ccccc12 |  | 54.8% | 4.59 µM | 9.6 | 
CC(=O)OC[C@]12[C@@H](OC(=O)c3ccco3)C[C@@H]3[C@@H](OC(C)=O)[C@]1(OC3(C)C)[C@](C)(O)C[C@H](OC(=O)c1ccco1)[C@@H]2OC(=O)c1ccco1 | 6.5 | 99.4% | 4.51 µM |  | 
CC(=O)OC[C@]12[C@@H](OC(=O)c3ccccc3)C[C@@H]3[C@@H](OC(=O)c4ccccc4)[C@]1(OC3(C)C)[C@H](C)C[C@H](OC(=O)c1cccnc1)[C@@H]2OC(C)=O | 8.4 | 85.8% | 0.71 µM |  | 
CC(=O)O[C@@H]1[C@H]2C[C@H](OC(=O)c3ccco3)[C@]3(C)[C@@H](OC(C)=O)[C@@H](OC(=O)c4ccco4)C[C@@](C)(O)[C@@]13OC2(C)C | 5.1 | 61.7% | 4.13 µM |  | 
CC(=O)O[C@H]1CC[C@@](C)(O)[C@]23OC(C)(C)[C@H](C[C@H](OC(=O)c4ccco4)[C@]12C)[C@H]3OC(=O)c1ccco1 | 5.3 | 96.3% | 6.61 µM |  | 
CC(=O)OC[C@]12[C@H](OC(C)=O)C(=O)[C@@H]3[C@@H](O)[C@]1(OC3(C)C)[C@](C)(O)C[C@H](OC(C)=O)[C@@H]2OC(C)=O | 3.3 | 39% | 7.65 µM |  | 
CC(=O)O[C@H]1[C@@H](O)C[C@@](C)(O)[C@]23OC(C)(C)[C@H](C[C@H](OC(=O)c4ccco4)[C@]12C)[C@H]3OC(=O)c1ccco1 | 4.3 | 51.8% | 4.16 µM |  | 
CC(=O)OC[C@]12[C@@H](OC(=O)c3ccccc3)C[C@@H]3[C@@H](OC(C)=O)[C@]1(OC3(C)C)[C@H](C)C[C@H](OC(C)=O)[C@@H]2OC(C)=O | 5.7 | 80.8% | 2.36 µM |  | 
CC(=O)O[C@H]1[C@@H](OC(=O)c2ccco2)C[C@@](C)(O)[C@]23OC(C)(C)[C@H](C[C@H](OC(=O)c4ccco4)[C@]12C)[C@H]3O | 4.7 | 41.2% | 5.53 µM |  | 
CC(=O)O[C@H]1C[C@@](C)(O)[C@]23OC(C)(C)[C@H](C[C@H](OC(=O)c4ccco4)[C@]2(C)[C@H]1OC(C)=O)[C@H]3OC(=O)C(F)(F)F | 4.1 | 34% | 12.1 µM |  | 
CC(=O)O[C@H]1C[C@@](C)(O)[C@]23OC(C)(C)[C@H](C[C@H](OC(=O)c4ccco4)[C@]2(C)[C@H]1O)[C@H]3OC(=O)c1ccco1 | 4.3 | 100% | 100 µM |  | 
CC(=O)O[C@@H]1[C@H]2C[C@H](OC(=O)c3ccco3)[C@]3(C)[C@@H](OC(C)=O)[C@@H](OC(=O)c4ccccc4)C[C@@](C)(O)[C@@]13OC2(C)C | 6.1 | 92.7% | 2.92 µM |  | 

Structure (SMILES) | logP ([1]; read-out: LogP) | Emax (P-gp (ABCB1)) | Ki ([2]; read-out: Ki) | logP [1] | Ki ([2]; read-out: Log Ki (converted))
CCCCCCCCCCCC(=O)O[C@@H]1[C@H]2C[C@H](OC(=O)c3ccco3)[C@]3(C)[C@@H](OC(C)=O)[C@@H](OC(C)=O)C[C@@](C)(O)[C@@]13OC2(C)C |  | 72.7% | 0.8 µM | 9.1 | 
CC(=O)O[C@H]1C[C@@](C)(O)[C@]23OC(C)(C)[C@H](C[C@H](OC(=O)c4ccco4)[C@]2(C)[C@H]1OC(C)=O)[C@H]3OC(=O)c1cccc2ccccc12 | 7.3 | 91.1% | 1.65 µM |  | 
CC(=O)O[C@H]1[C@@H](OC(=O)c2ccccc2)C[C@@](C)(O)[C@]23OC(C)(C)[C@H](C[C@H](OC(=O)c4ccco4)[C@]12C)[C@H]3OC(=O)C(F)(F)F | 6.4 | 53.3% | 1.56 µM |  | 
CC(=O)OC[C@]12[C@@H](OC(=O)c3ccco3)C[C@@H]3[C@@H](OC(=O)c4ccco4)[C@]1(OC3(C)C)[C@](C)(O)C[C@H](OC(C)=O)[C@@H]2OC(C)=O | 5.4 | 76.9% | 2.44 µM |  | 
CC(=O)OC[C@]12[C@@H](OC(=O)c3ccccc3)C[C@@H]3[C@@H](OC(=O)c4ccccc4)[C@]1(OC3(C)C)[C@](C)(O)C[C@H](OC(C)=O)[C@@H]2OC(C)=O | 7.3 | 100% | 1.5 µM |  | 
CCCCCO[C@H]1[C@@H](OC(=O)c2ccco2)C[C@@](C)(O)[C@]23OC(C)(C)[C@H](C[C@H](OC(=O)c4ccco4)[C@]12COC(C)=O)[C@H]3OC(C)=O | 6.9 | 91.3% | 1.94 µM |  | 
CCCO[C@H]1C[C@@](C)(O)[C@]23OC(C)(C)[C@H](C[C@H](OC(=O)c4ccco4)[C@]2(C)[C@H]1OC(C)=O)[C@H]3OC(=O)c1ccco1 | 6.2 | 100% | 1.13 µM |  | 
CC(=O)O[C@H]1C[C@@](C)(O)[C@]23OC(C)(C)[C@H](C[C@H](OC(=O)c4ccco4)[C@]2(C)[C@H]1OC(=O)c1ccccc1)[C@H]3OC(=O)c1ccco1 | 7.2 | 45.3% | 3.45 µM |  | 
CC(=O)OC[C@]12[C@@H](OC(=O)c3ccccc3)C[C@@H]3[C@@H](OC(C)=O)[C@]1(OC3(C)C)[C@H](C)C[C@H](OC(=O)c1ccccc1)[C@@H]2OC(C)=O | 7.7 | 88% | 0.63 µM |  | 
CC(=O)OC[C@]12[C@@H](OC(=O)c3ccccc3)C[C@@H]3[C@@H](OC(C)=O)[C@]1(OC3(C)C)[C@](C)(O)C[C@H](OC(C)=O)[C@@H]2OC(C)=O | 5 | 85% | 4.39 µM |  | 3.47 µM
CC(=O)O[C@H]1C[C@@](C)(O)[C@]23OC(C)(C)[C@H](C[C@H](OC(=O)c4ccco4)[C@]2(C)[C@H]1OC(C)=O)[C@H]3OC(=O)C(C)(C)C | 5 | 75.2% | 0.96 µM |  | 
CC(=O)O[C@H]1C[C@@](C)(O)[C@]23OC(C)(C)[C@H](C[C@H](OC(=O)c4ccco4)[C@]2(C)[C@H]1OC(C)=O)[C@H]3OC(=O)c1ccccc1 | 6.1 | 67.9% | 8.94 µM |  | 
CC(=O)O[C@H]1[C@@H](OC(=O)c2ccccc2)C[C@@](C)(O)[C@]23OC(C)(C)[C@H](C[C@H](OC(=O)c4ccco4)[C@]12C)[C@H]3OC(=O)c1ccco1 | 7.1 | 93.1% | 0.7 µM |  | 
CC(=O)O[C@H]1[C@@H](OC(=O)c2ccccc2)C[C@@](C)(O)[C@]23OC(C)(C)[C@H](C[C@H](OC(=O)c4ccco4)[C@]12C)[C@H]3OC(=O)C(C)(C)C | 7.3 | 90% | 1.04 µM |  | 
CC(=O)O[C@H]1C[C@@](C)(O)[C@]23OC(C)(C)[C@H](C[C@H](OC(=O)c4ccco4)[C@]2(C)[C@H]1OC(C)=O)[C@H]3OC(=O)c1ccco1 | 5.1 | 95.7% | 2.91 µM |  | 
CCCCCCCCCCCC(=O)O[C@@H]1[C@H]2C[C@H](OC(=O)c3ccco3)[C@]3(C)[C@@H](OC(C)=O)[C@@H](OC(=O)c4ccccc4)C[C@@](C)(O)[C@@]13OC2(C)C |  | 29.2% | 5.16 µM | 11.4 | 

Reference: ChEMBL document CHEMBL1148809, “Biological evaluation, structure-activity relationships, and three-dimensional quantitative structure-activity relationship studies of dihydro-beta-agarofuran sesquiterpenes as modulators of P-glycoprotein-dependent multidrug resistance” (J Med Chem, 2007)
